Data taken from patent publication US20160264593A1 (priority 2013, published 2016).

Assay: Pharmacokinetic study of 153 (and metabolite endothal) in SD rats, iv and po; plasma, liver, brain
Format: in vivo
Details: for endothal detectable in brain samples: after single iv 153 at 1.25 mg/kg, 1.25 mg/kg
Experimental: The blood, liver and brain tissue samples were collected at predetermined times from rats. […] Compound were diluted shortly before use in 4% sodium bicarbonate for sterile injection (this is the standard pediatric solution of NaHCO3 with a pH of about 8.5).
Compound 153 was freshly prepared by diluting the drugs shortly before use in 4% sodium bicarbonate for sterile injection (this is the standard pediatric solution of NaHCO3 with a pH of about 8.5). The final concentrations of 153 solutions were 0.25 mg/mL. The 153 solutions were administered via iv or po route at dose volume of 5 ml/kg according to the latest body weight. Compound 157 was freshly prepared by diluting the drugs shortly before use in 4% sodium bicarbonate for sterile injection (this is the standard pediatric solution of NaHCO3 with a pH of about 8.5). The final concentrations of […] solutions were 0.3 mg/mL. The 157 solutions were administered via iv or po route at dose volume of 5 ml/kg according to the latest body weight.
Twelve (12) female SD rats per group were dosed by iv with 153 or 157. The rats were fasted overnight prior to dosing, with free access to water. Foods were withheld for 2 hours post-dose. Blood, liver and brain tissue samples in two animals each group were collected at each time point, within 10% of the scheduled time for each time point. Two extra animals were used for analytic method development.
Blood (>0.3 mL) were collected via aorta abdominalis in anaesthetic animals into tubes containing heparin at 15 min, 1, 2, 6, 10 and 24 hours after iv administration. Liver and brain tissues were collected immediately after animal death. The liver and brain tissues were excised and rinsed with cold saline to avoid blood residual. Upon collection, each sample was placed on ice and the blood samples were subsequently centrifuged (4° C., 11000 rpm, 5 min) to separate plasma. The obtained plasma, liver and brain tissue samples were stored at −70° C. until LC-MS/MS analysis.
Two (2) female SD rats per group were dosed by po with 153 or 157. The rats were fasted overnight prior to dosing, with free access to water. Foods were withheld for 2 hours post-dose. Blood samples (>0.3 mL) were collected via aorta abdominalis in anaesthetic animals into tubes containing heparin at 30 min, 1, 2, 6, 10 and 24 hours after po administration.
To each sample, 20 μL IS-D (for blank samples, 20 μL acetonitrile:water (1:1) was added) and 300 μl acetonitrile was added. The sample mixture was vortexed for approximately 3 min. After centrifugation at 10000 rpm for 5 min at 4° C., 100 μL of the upper layer was transferred to a new tube and added 200 μL 0.4% formic acid in water (pH 6.0). The mixture was vortexed for approximately 3 min before injected onto the LC/MS/MS system for analysis.
On the day of the assay, the frozen liver and brain samples were thawed unassisted at room temperature. An about 200 mg weighed sample of each thawed tissue was placed into a plastic tube with water (0.6 mL) to facilitate homogenization. Tissue processing was conducted using a homogenizer for approximately 1 min, 200 μl homogenate was transferred into a fresh Eppendorf tube. To each tube, 50 μL IS-D was added and mixed. Then 600 μl acetonitrile was added and the sample mixture was vortexed for approximately 3 min. After centrifugation at 10000 rpm for 5 min at 4° C., 400 μL of the upper layer was transferred to a new tube and evaporate the supernatant to dryness at 35° C. Reconstitute the residue with 200 μL of 0.4% formic acid in water (pH6.0), and vortex for 3 min, submit for LC-MS/MS analysis.
Frozen unknown plasma samples were completely thawed at room temperature and vortexed thoroughly. With a pipette, 50 μL of plasma was transferred into a 2.0 mL Eppendorf tube. 50 μL of 0.1N HCl and 800 μL ethyl acetate were added into each sample. The sample mixture was vortexed for approximately 3 min.

Q: For O=C(O)C1C2CCC(O2)C1C(=O)O (stereo not drawn) [Endothal, 7-oxabicyclo[2.2.1]heptane-2,3-dicarboxylic acid], which Endothal plasma concentration (after iv 153, 10 hr, Rat 2) is on record?
A: The Endothal plasma concentration was “BLQ”.

Q: What about the Endothal plasma concentration (after iv 153, 24 hr, Rat 1) of the same compound?
A: Its Endothal plasma concentration is “BLQ”.

Q: What about the Endothal plasma concentration (after iv 153, 24 hr, Rat 2) of the same compound?
A: Its Endothal plasma concentration is “BLQ”.

Q: And the Endothal plasma concentration (after po 153, 10 hr, Rat 1)?
A: Its Endothal plasma concentration is “BLQ”.

Q: What about the “endothal detectable in brain samples” value of the same compound?
A: Its value is “undetectable”.

Q: And the “endothal detectable in brain samples” value (listed as endothal)?
A: The value was “not detectable”.
